“Also recorded” adds a separate entry of the source.
Columns and labels:
NK cells = details: previously shown by the inventors; cited from earlier work
E4bp4 = details: previously shown by the inventors; cited from earlier work
REV-ERBβ = biological target: T1, REV-ERBβ (Homo sapiens, UniProt Q14995); assay: Dual-luciferase Bmal-luc reporter assay in HEK293T cells transfected with REV-ERBβ; assay type: cell-based; details: 10 μM
T1 construct: expressed in transfected cells; host or cells: HEK293T
T1 sequence (Q14995 1-579): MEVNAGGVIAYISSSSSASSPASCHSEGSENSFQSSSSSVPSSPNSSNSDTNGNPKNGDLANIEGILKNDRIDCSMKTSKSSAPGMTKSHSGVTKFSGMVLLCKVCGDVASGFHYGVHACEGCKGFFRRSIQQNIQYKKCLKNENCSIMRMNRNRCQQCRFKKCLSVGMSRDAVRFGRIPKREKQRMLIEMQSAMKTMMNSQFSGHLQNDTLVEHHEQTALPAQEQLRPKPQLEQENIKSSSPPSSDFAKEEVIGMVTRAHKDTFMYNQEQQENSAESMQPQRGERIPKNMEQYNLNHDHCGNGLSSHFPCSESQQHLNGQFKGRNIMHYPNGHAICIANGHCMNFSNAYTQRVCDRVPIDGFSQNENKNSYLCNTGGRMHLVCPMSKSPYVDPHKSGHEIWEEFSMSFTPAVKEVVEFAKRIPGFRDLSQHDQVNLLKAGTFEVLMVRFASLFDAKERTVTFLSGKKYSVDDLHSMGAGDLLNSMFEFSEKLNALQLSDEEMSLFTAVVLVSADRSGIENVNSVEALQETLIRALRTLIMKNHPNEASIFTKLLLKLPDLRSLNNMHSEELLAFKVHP
Method: (§1) HEK293T cells were defrosted and maintained in DMEM supplemented with 10% FCS and 1% P/S at 37° C. and 5% CO2. Cells were plated in a 24-well plate (7·10^4 cells/well in 0.5 mL of DMEM+10% FCS). 24 h after seeding, cells were transfected with 100 ng of Bmal-luc, 10 ng of pRL-CMV Renilla as an internal control and 10 ng of REV-ERBα or the empty vector pcDNA3 as a control. All conditions were equalled to a total of 400 ng of DNA by using BSM. In order to prepare transfection samples, calculated amounts of DNA needed for each condition were prepared in Opti-MEM and Fugene was added in a 5:2 Fugene:DNA ratio. Mixtures were vortexed to assure homogeneity and left to incubate for 15 min at rt. Afterwards, each DNA mix was transferred into the 24-well plate containing the pre-seeded cells, with each condition repeated by triplicate. 5 h after transfection, cells were treated with compounds 2-12, AG1-AG5 or DMSO as vehicle. Solution of the compounds in DMEM were prepared at a double concentration than the final desired one, and 0.5 mL of these solutions were added to each well. 24 h after transfection, cells were lysed and luciferase activity was measured using Dual-Luciferase Reporter Assay System E2920 (Promega). To perform the experiment, cells were lysed by adding 50 μL of passive lysis buffer (PLB) (1:5 dilution) to each well and gently stirring for 30 min. Each cell lysate was transferred to a 96-well plate. 50 μL of Dual-Glo reagent were dispensed into each well, tapped gently to mix and incubated for 10 min. Luminescence of firefly luciferase was measured using a Tecan VICTOR Light Luminescent counter equipment. Then, 50 μL of Stop&Glo reagent were dispensed to quench firefly activity and activate Renilla luciferase, incubated for 10 min and measured. Firefly activity was normalized to Renilla luciferase activity. Results were analysed using Welch's corrected parametric t-test.
The method of Example 2 was repeated but with 10 ng of REV-ERBβ used in place of REV-ERBa. Compounds 4, 66, 69 and 73 were tested (generated as described in Example 1). Agonist compound AG2 and DMSO were also tested as comparators.
The method of Example 5 was repeated using Compounds 18 and 19 (generated as described in Example 1). Agonist compound AG5 and DMSO were also tested as comparators.

REV-ERBα = biological target: T2, REV-ERBα (Homo sapiens, UniProt P20393); assay: Dual-luciferase Bmal-luc reporter assay in HEK293T cells transfected with REV-ERBα; assay type: cell-based; details: 10 μM
T2 construct: expressed in transfected cells; host or cells: HEK293T
T2 sequence (P20393 1-614): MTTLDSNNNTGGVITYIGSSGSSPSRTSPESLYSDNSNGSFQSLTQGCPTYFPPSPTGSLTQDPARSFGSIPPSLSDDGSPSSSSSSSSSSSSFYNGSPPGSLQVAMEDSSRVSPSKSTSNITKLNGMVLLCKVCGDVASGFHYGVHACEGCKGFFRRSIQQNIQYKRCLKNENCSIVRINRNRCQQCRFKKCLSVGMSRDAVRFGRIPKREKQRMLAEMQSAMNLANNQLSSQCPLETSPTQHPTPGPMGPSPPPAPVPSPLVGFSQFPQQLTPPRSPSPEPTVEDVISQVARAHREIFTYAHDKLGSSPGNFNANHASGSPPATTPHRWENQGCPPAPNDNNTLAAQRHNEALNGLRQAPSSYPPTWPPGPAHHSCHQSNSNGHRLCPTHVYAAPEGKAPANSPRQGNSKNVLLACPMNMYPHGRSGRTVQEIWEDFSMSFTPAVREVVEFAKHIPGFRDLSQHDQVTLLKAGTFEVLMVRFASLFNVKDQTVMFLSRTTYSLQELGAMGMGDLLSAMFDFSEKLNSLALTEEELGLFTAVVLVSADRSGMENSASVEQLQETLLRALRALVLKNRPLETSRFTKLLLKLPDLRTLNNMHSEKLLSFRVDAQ
Method: as §1
(§2) The method of Example 2 was repeated using Compounds 70 to 72 (generated as described in Example 1). Compounds 4, 7 and 11 (tested in Example 2) were used as a positive control for REV-ERB inhibitory activity, agonist compound AG2 (also tested in Example 2) and DMSO were also tested as comparators.
The method of Example 2 was repeated using Compounds 64 to 66, 69 and 70 to 73 (generated as described in Example 1). Once again, Compounds 4, 7 and 11 (tested in Example 2) were used as a positive control for REV-ERB inhibitory activity, agonist compound AG2 (also tested in Example 2) and DMSO were also tested as comparators.
as §2, with “16” for “70”, “19, 27, 28 and 44” for “72”, “1). Once again,” for “1).”

[1] = FIG. 6, three independent experiments in triplicate
[2] = FIG. 3, three independent experiments in triplicate, comparison with SR8278
[3] = FIG. 4, two independent experiments in triplicate, comparison with SR8278
[4] = FIG. 8, two independent experiments in triplicate

| Structure (SMILES) | Effect on REV-ERBβ activity (Bmal-luc luciferase expression) (REV-ERBβ; [1]) | Effect on REV-ERBα activity (Bmal-luc luciferase expression) (REV-ERBα; [2]) | Effect on REV-ERBα activity (Bmal-luc luciferase expression) (REV-ERBα; [3]) | Effect on REV-ERBβ activity (Bmal-luc luciferase expression) (REV-ERBβ; [4]) | other results |
| --- | --- | --- | --- | --- | --- |
| CCOC(=O)C1Cc2ccccc2CN1C(=O)c1ccc(SC)s1 (stereo not shown) [SR8278] |  |  |  |  | NK cell production (NK cells): increases NK cell production; E4bp4 expression (E4bp4): increases E4bp4 expression |
| CCOC(=O)C1Cc2ccccc2CN1C(=O)OCC (racemic) [Compound 4, Diethyl 3,4-dihydroisoquinoline-2,3(1H)-dicarboxylate] | significant antagonistic activity | significant increase in luciferase expression compared with SR8278; also recorded: significant antagonistic activity | significant antagonistic activity |  | Effect on REV-ERBα activity (Bmal-luc luciferase expression) (REV-ERBα; FIG. 7, three independent experiments in triplicate): significant antagonistic activity |
| CCOC(=O)C1Cc2ccccc2CN1C(=O)c1ccn(C)n1 (racemic) [Compound 19] |  |  |  | antagonistic activity |  |
| CCOC(=O)C1Cc2ccccc2CN1C(=O)c1ccnn1C (racemic) [Compound 18] |  |  |  | antagonistic activity |  |
| CCOC(=O)C1Cc2ccccc2CN1S(=O)(=O)c1cccc2ccccc12 (stereo not shown) [AG2] | agonist | agonists | agonist | agonist | Effect on REV-ERBα activity (Bmal-luc luciferase expression) (REV-ERBα; FIG. 5, three independent experiments in triplicate): agonist |

Reference: patent US12377119B2, “Natural killer cells” (IMPERIAL COLLEGE INNOVATIONS LIMITED, priority 2018, dated 2025)
